The structures appear in SMILES notation.

Experiment [1] relates to NRF2. The note with it: colon cancer cell line, versus shorter or longer chain derivatives; literature; cited from earlier work.
Experiment [2] concerns NRF2. As to conditions: comparison of positional isomers; literature; cited from earlier work.
For another experiment, the system named is Gclm. As to the kind of experiment: Relative gene expression of Gclm in BMCs (qRT-PCR). It is filed as cell-based, mouse. The note with it: 2 μM, 4 h; for Gclm relative expression: 4% and 1% oxygen. From the text: Primary bone marrow cells (BMCs) were isolated from 8–12-week-old male C57BL/6 mice (25–30 g, AnLab, Czech Republic). Mice were housed under standard conditions. BMCs were isolated as follows: The day before isolation, phosphate-buffered saline (PBS), ACK Lysis Buffer (A10492-01, Thermo Fisher Scientific), and Iscove’s Modified Dulbecco’s Medium (IMDM) (12440-053, Thermo Fisher Scientific) were placed in a hypoxic chamber (InvivO2 400, Baker Ruskinn, UK) with adjustable oxygen control to equilibrate for the target oxygen concentrations. On the day of the experiment, animals were euthanized using ketamine/xylazine, and bilateral femurs were extracted. BMCs were flushed with hypoxic (1% O2 unless stated otherwise) PBS supplemented with 2% fetal bovine serum (FBS; low endotoxin, FB-1101/500, Biosera, France). After hemolysis at room temperature using hypoxic ACK Lysis Buffer, nucleated BMCs were washed with hypoxic PBS + 2% FBS and counted using a TC20 automated cell counter (Bio-Rad). Cells were kept under hypoxic conditions prior to treatment. The medium for BMC culture, consisting of IMDM with 2% FBS and 1% penicillin/streptomycin (LM-A4118/100, Biosera, France), was supplemented with 10 ng/mL mouse IL-3, 10 ng/mL mouse IL-6, and 50 ng/mL mouse stem cell factor - SCF (213-13, 216-16, and 250-03, respectively; all from PeproTech). Cells were cultured at 37 °C in a humidified atmosphere containing 5% CO2 and the specified oxygen concentrations (21%, 4%, or 1%).
For the relative gene expression of nuclear factor erythroid 2-related factor 2 (NRF2, encoded by Nfe2l2), heme oxygenase-1 (Hmox1), and Glutamate-Cysteine Ligase Modifier Subunit (Gclm) (Mm00477784_m1, Mm00516005_m1, Mm00514996_m1, all from Thermo Fisher Scientific), mouse BMC (3 × 10^6 cells) were cultivated on a 6-well plate in 1.5 mL of complete media (see Isolation and culture of primary cells), and then incubated with 2 μM NO2FAs or control (medium only) for 4 h at the specified oxygen levels (21%, 4%, or 1%). Then, the adherent and nonadherent cells were washed with PBS and lysed using a NucleoSpin RNA Plus kit (740984, Machery-Nagel; Germany). The concentration and purity of isolated RNA was assessed using an Infinite M200 Pro spectrophotometer (Tecan, Austria). Total RNA (0.2 μg) was reversely transcribed into first strand cDNA using a RevertAid First Strand cDNA Synthesis kit according to the manufacturer’s protocol (K1622, Thermo Fisher Scientific). qRT-PCR reactions were performed in a LightCycler480 instrument (Roche; Switzerland) using TaqMan FastAdvanced Master Mix for qPCR (4444557, Thermo Fisher Scientific) and the following program was used: uracil-N-glycosylase activation step at 50 °C for 2 min, an initial denaturation step at 95 °C for 2 min, followed by 45 cycles (95 °C for 3 s, 60 °C for 30 s), and a final cooling step at 40 °C for 1 min. Data were normalized to ribosomal protein L32 (Rpl32, Mm02528467_g1, Thermo Fisher Scientific) and presented as 2^–Δcq.
3 Expression of NRF2 and its target genes in response to NO2FA derivatives. BMCs were cultured under 4% or 1% oxygen conditions and treated for 4 h with the tested NO 2 FAs (2 μM) or medium followed by quantification of (A) Nfe2l2, (B) Hmox1, and (C) Gclm with PCR. Results are presented as relative expression across different oxygen culture conditions. Dimethyl fumarate (DMF) was added as a control. Data are expressed as mean ± SD from 3 to 7 independent experiments (n = 3–7), analyzed with one-way ANOVA with Dunnett’s multiple comparisons test compared to the controls (*p < 0.05; **p < 0.01; ***p < 0.001).
Relative expression of (A) Hmox1 and (B) Gclm in different oxygen […]
Figure S 2. Relative expression of (A) Hmox1 and (B) Gclm in different oxygen conditions. BMCs were cultured under varying oxygen conditions (21, 4, and 1%) and treated for 4 hours with the tested 10 -NO₂OA (2 µM) or medium followed by quantification […]
with PCR. […]

The subject of the next experiment is Nfe2l2. As to the kind of experiment: Relative gene expression of Nfe2l2 in BMCs (qRT-PCR). It is filed as cell-based, mouse. As to conditions: 2 μM, 4 h. From the text:
Primary bone marrow cells (BMCs) were isolated from 8–12-week-old male C57BL/6 mice (25–30 g, AnLab, Czech Republic). Mice were housed under standard conditions. BMCs were isolated as follows: The day before isolation, phosphate-buffered saline (PBS), ACK Lysis Buffer (A10492-01, Thermo Fisher Scientific), and Iscove’s Modified Dulbecco’s Medium (IMDM) (12440-053, Thermo Fisher Scientific) were placed in a hypoxic chamber (InvivO2 400, Baker Ruskinn, UK) with adjustable oxygen control to equilibrate for the target oxygen concentrations. On the day of the experiment, animals were euthanized using ketamine/xylazine, and bilateral femurs were extracted. […] After hemolysis at room temperature using hypoxic ACK Lysis Buffer, nucleated BMCs were washed with hypoxic PBS + 2% FBS and counted using a TC20 automated cell counter (Bio-Rad). […]
3 Expression of NRF2 and its target genes in response to NO2FA derivatives. BMCs were cultured under 4% or 1% oxygen conditions and treated for 4 h with the tested NO 2 FAs (2 μM) or medium followed by quantification of (A) Nfe2l2, (B) Hmox1, and (C) Gclm with PCR. […] Data are expressed as mean ± SD from 3 to 7 independent experiments (n = 3–7), analyzed with one-way ANOVA with Dunnett’s multiple comparisons test compared to the controls (*p < 0.05; **p < 0.01; ***p < 0.001).
Background: Real-time PCR tracks product formation cycle by cycle.

Experiment [3] has as its system NRF2. Kind of experiment: Immunocytochemistry of NRF2 in BMCs. It is filed as cell-based, mouse. As to conditions: 1 h, 1% oxygen. Here is the method: BMCs (2 × 10^6 cells in 300 μL of complete medium) were incubated with 10-NO 2 OA or control medium for 1 h in a 1% oxygen incubator. Cells were then washed with PBS, resuspended in fresh PBS, and plated on an 8-well μ-slide (ibidi, Germany). After allowing cells to settle (10 min), PBS was aspirated, and cells were fixed with 4% paraformaldehyde for 10 min. From this step onward, all work was performed under atmospheric conditions. Cells were washed twice, permeabilized with 0.1% Triton X-100, washed again, and blocked with 1% BSA/PBS. Samples were incubated with primary anti-NRF2 antibody (1:100, SAB4501384, Millipore) overnight at 4 °C. After washing, a secondary Alexa Fluor 647 antibody (1:100, A31573, Invitrogen) was added for 1 h at room temperature in the dark. After washes, nuclei were stained with DAPI (0.5 μg/mL, Merck) for 10 min at room temperature in the dark, washed, and mounted on a microscope slide. Images were acquired with an Olympus FV10i (Olympus, Japan) scanning microscope and analyzed using ImageJ v1.52 (NIH).
5 Subcellular localization of NRF2. NO 2 FA derivatives promote nuclear translocation of NRF2 in mouse BMCs. BMCs were cultured under 1% oxygen conditions and treated for 1 h with 2 μM of 10-NO 2 OA, 10-NO 2 LA, or 10-NO 2 SA. […] Data are expressed as mean ± SD from two independent experiments (n = 2). […]

The subject of the next experiment is Gclm and Hmox1. Details: method as in Khoo et al. The note with it: compared to other derivatives; ref Khoo et al.; cited from earlier work.

On to `CCCCCCCC/C=C(\CCCCCCCC(=O)O)[N+](=O)[O-]` [9-NO2OA, (9E)-9-Nitro-oleic Acid], for which the NRF2 induction entry with NRF2 [1] is recorded as “induced NRF2 more robustly”. Besides, in the experiment with NRF2 [2], the “NRF2 activation (ARE-reporter luciferase)” value is “preferentially activated NRF2 over 10-NO 2 OA”. Also, in the experiment with Gclm, the Gclm relative expression result was “significant upregulation”. Also, the Nfe2l2 relative expression result in the experiment with Nfe2l2 (4% oxygen) is “significantly increased”.

As for `CCCCCC/C=C/C=C(\CCCCCCCC(=O)O)[N+](=O)[O-]` [9-NO2cLA, (9E,11E)-9-Nitro Conjugated Linoleic Acid], in the experiment with Gclm, the Gclm relative expression entry was “upregulation that was dependent on oxygen levels”.

With `CCCCC/C=C\C/C(=C\CCCCCCCC(=O)O)[N+](=O)[O-]` [10-NO2LA, (9E,12Z)-10-Nitro Linoleic Acid], the Gclm relative expression entry in the experiment with Gclm was “upregulation that was dependent on oxygen levels or specific target genes”.

In the case of `CCCCCCCC/C(=C\CCCCCCCC(=O)O)[N+](=O)[O-]` [10-NO2OA, (9E)-10-Nitro-oleic Acid], in the experiment with Gclm (1% vs 21% oxygen), the “Gclm expression at 1% oxygen compared to 21%” value is reported as “not observed”. The Gclm relative expression entry in the experiment on Gclm is given as “significant upregulation”. Also, the “colocalization of NRF2 with the nucleus” value in the experiment on NRF2 [3] is on record as “increased colocalization”. Further, in the experiment with Gclm and Hmox1, the “expression of Gclm and Hmox1” value is “induced a higher expression”.

Consider `CCCCCCCCC(CCCCCCCCC(=O)O)[N+](=O)[O-]` (stereo not drawn) [10-NO2SA, 10-Nitro Stearic acid], for which the Gclm relative expression result in the experiment with Gclm is “no effects”. In addition, the Nfe2l2 relative expression entry in the experiment on Nfe2l2 (4% and 1% oxygen) was “no effects”.

The values above are taken from PMC12169669, “Regio- and Stereoselective Synthesis of Nitro-fatty Acids as NRF2 Pathway Activators Working under Ambient or Hypoxic Conditions” (Journal of Medicinal Chemistry, 2025).
